The values that follow come from ChEMBL document CHEMBL1153872, “Synthesis, analgesic, anti-inflammatory and antimicrobial studies of 2,4-dichloro-5-fluorophenyl containing thiazolotriazoles” (2009).

Usually inhibition in vivo stands for the drop in the measured response relative to a control, in per cent.

Holding throughout (format): functional
Assay [1] concerns Aspergillus fumigatus. Nature of the assay: Antifungal activity against Aspergillus fumigatus after 48 hrs by twofold broth dilution method. For orientation: Broth dilution looks for growth in wells or tubes with falling amounts of substance.
The test system of assay [2] is Pseudomonas aeruginosa. Nature of the assay: Antibacterial activity against Pseudomonas aeruginosa after 24 hrs by broth dilution technique.
In assay [3] the test system is Talaromyces marneffei. Description: Antifungal activity against Penicillium marneffei after 3 to 4 days by agar diffusion method. Background: A growth-free zone around the sample is the usual read-out of agar diffusion tests.
The test system of assay [4] is Trichophyton mentagrophytes. Nature of the assay: Antifungal activity against Trichophyton mentagrophytes after 3 to 4 days by agar diffusion method.
Assay [5] relates to Staphylococcus aureus. Description: Antibacterial activity against Staphylococcus aureus after 24 hrs by broth dilution technique.
Assay [6] has as its system Aspergillus fumigatus. Nature of the assay: Antifungal activity against Aspergillus fumigatus after 3 to 4 days by agar diffusion method.
Assay [7] relates to Trichophyton mentagrophytes. Nature of the assay: Antifungal activity against Trichophyton mentagrophytes after 48 hrs by twofold broth dilution method.
Assay [8] has as its system Aspergillus niger. Description: Antifungal activity against Aspergillus niger after 48 hrs by twofold broth dilution method.
The subject of assay [9] is Escherichia coli. Description: Antibacterial activity against Escherichia coli after 24 hrs by disk diffusion method.
Assay [10] relates to Pseudomonas aeruginosa. Nature of the assay: Antibacterial activity against Pseudomonas aeruginosa after 24 hrs by disk diffusion method.
In assay [11] the test system is Staphylococcus aureus. Nature of the assay: Antibacterial activity against Staphylococcus aureus after 24 hrs by disk diffusion method.
Assay [12] has as its system Talaromyces marneffei. Description: Antifungal activity against Penicillium marneffei after 48 hrs by twofold broth dilution method.
Assay [13] relates to Aspergillus niger. Description: Antifungal activity against Aspergillus niger after 3 to 4 days by agar diffusion method.
Assay [14] concerns Mus musculus. Description: Analgesic activity in albino mouse assessed as response latency time to pain stimulus at 25 mg/kg, po after 1 hr by hot plate method. The arrangement: unit not given here. On the technique in general: Hot-plate and tail-flick tests time the reaction to a heat stimulus.
Assay [15] has as its system Streptococcus pyogenes. Description: Antibacterial activity against Streptococcus pyogenes after 24 hrs by broth dilution technique.
The test system of assay [16] is Streptococcus pyogenes. Nature of the assay: Antibacterial activity against Streptococcus pyogenes after 24 hrs by disk diffusion method.
Assay [17] has as its system Escherichia coli. Nature of the assay: Antibacterial activity against Escherichia coli after 24 hrs by broth dilution technique.
The subject of assay [18] is Mus musculus. Description: Analgesic activity in albino mouse assessed as response latency time to pain stimulus at 25 mg/kg, po after 3 hrs by hot plate method. The arrangement: unit not given here.
The test system of assay [19] is Klebsiella pneumoniae. Nature of the assay: Antibacterial activity against Klebsiella pneumoniae after 24 hrs by broth dilution technique.
The subject of assay [20] is Candida albicans. Description: Antifungal activity against Candida albicans after 3 to 4 days by agar diffusion method.
The test system of assay [21] is Klebsiella pneumoniae. Description: Antibacterial activity against Klebsiella pneumoniae after 24 hrs by disk diffusion method.
The test system of assay [22] is Candida albicans. Nature of the assay: Antifungal activity against Candida albicans after 48 hrs by twofold broth dilution method.
Assay [23] deals with Rattus norvegicus. Description: Antiinflammatory activity in Wister albino rat assessed as inhibition of carrageenan-induced paw edema at 50 mg/kg, po administered 30 mins before carrageenan challenge measured after 3 hrs relative to control.
The test system of assay [24] is Rattus norvegicus. Nature of the assay: Antiinflammatory activity in Wister albino rat assessed as inhibition carrageenan-induced paw edema at 2 mg/kg, po administered 30 mins before carrageenan challenge measured after 3 hrs relative to control.
For assay [25], the system named is Mus musculus. Nature of the assay: Analgesic activity in albino mouse assessed as response latency time to pain stimulus at 5 mg/kg, ip after 3 hrs by hot plate method. As to conditions: route intraperitoneal.
Assay [26] concerns Mus musculus. Nature of the assay: Analgesic activity in albino mouse assessed as response latency time to pain stimulus at 5 mg/kg, ip after 1 hr by hot plate method. As to conditions: route intraperitoneal.

As to `Fc1ccc(-c2csc3nc(-c4cc(F)c(Cl)cc4Cl)nn23)cc1`, the MIC is listed as 6.25 microg/cm3 in assay [1]; 6.25 microg/cm3 in assay [2]; 12.5 microg/cm3 in [5]; 6.25 microg/cm3 in assay [7]; 6.25 microg/cm3 in assay [8]; 6.25 microg/cm3 in [12]. In addition, the MIC in [15], in assay [17], in assay [19] and in [22] was 6.25 microg/cm3 throughout. For the same molecule, the “Diameter of inhibition zone” value amounted to 21 mm in [3]; 17 mm in [4]; 29 mm in assay [6]; 23 mm in [9]; 28 mm in [10]; 18 mm in assay [11]. For the same molecule, the “Diameter of inhibition zone” value in assay [13] came to 21 mm; in assay [16], 21 mm; in assay [20], 19 mm; in assay [21], 20 mm. For the same molecule, the values for the Time in [14] and in [18] were 8.3 and 8.2, respectively. In assay [23], the inhibition in vivo at 50 mg/kg was 48.8%.
For the molecule `Fc1cc(-c2nc3scc(-c4cc(F)c(Cl)cc4Cl)n3n2)c(Cl)cc1Cl`, the MIC in assay [1] is 6.25 microg/cm3; in assay [2], 6.25 microg/cm3; in [5], 6.25 microg/cm3; in [7], 6.25 microg/cm3; in [8] it was 12.5 microg/cm3; in assay [12] it was 6.25 microg/cm3. The MIC in [15], in assay [17], in assay [19] and in [22] was 6.25 microg/cm3 in each case. Further, the “Diameter of inhibition zone” value is listed as 23 mm in assay [3]; 18 mm in assay [4]; 20 mm in [6]; 28 mm in [9]; 30 mm in assay [10]; 23 mm in [11]. In addition, the “Diameter of inhibition zone” value in assay [13] stood at 22 mm; in [16], 24 mm; in [20], 18 mm; in [21], 19 mm. The Time in assay [14] turned out to be 14.21; in assay [18], 13.6. For the same molecule, the inhibition in vivo at 50 mg/kg in [23] is 59.4%.
With `Fc1cc(-c2nc3scc(-c4ccc(Cl)cc4)n3n2)c(Cl)cc1Cl`, the MIC in [1], in [2], in [5], in [7], in [8] and in assay [12] was 6.25 microg/cm3 in each case. Further, the MIC in assay [15], in assay [17], in assay [19] and in assay [22] was 6.25 microg/cm3 each time. Moreover, the “Diameter of inhibition zone” value in assay [3] was 19 mm; in assay [4], 19 mm; in [6] it was 19 mm; in assay [9], 26 mm; in [10], 31 mm; in assay [11] it was 26 mm. Also, the “Diameter of inhibition zone” value was found to be 24 mm in [13], 19 mm in [16], 20 mm in [20] and 17 mm in assay [21]. The Time in assay [14] is recorded as 13.2; in assay [18], 12.9. The inhibition in vivo at 50 mg/kg in assay [23] worked out at 42.2%.
`COc1ccc2c(c1)c(CC(=O)O)c(C)n2C(=O)c1ccc(Cl)cc1` [INDOMETHACIN]: in assay [24], the inhibition in vivo at 2 mg/kg was found to be 62.9%.
Take `CCOC(=O)C1(c2ccccc2)CCN(C)CC1` [MEPERIDINE]: the Time was found to be 14.3 h in [25] and 16.4 h in assay [26].
